From patent publication US6403794B2, “Substituted 2-amino-4-alkylamino-1,3,5-triazines as herbicides” (Bayer Aktiengesellschaft, priority 1996, dated 2002)

Assays:
weeds [1] = assay: Post-emergence test; assay type: in vivo
Experimental: (§1) Solvent: 5 parts by weight of acetone
(§2) Emulsifier: 1 part by weight of alkylaryl polyglycol ether
(§3) To produce a suitable preparation of active compound, 1 part by weight of active compound is mixed with the stated amount of solvent, the stated amount of emulsifier is added and the concentrate is diluted with water to the desired concentration.
(§4) Test plants which have a height of 5-15 cm are sprayed with the preparation of active compound such that the particular amounts of active compounds desired are applied per unit area. The concentration of the spray liquor is chosen so that the particular amounts of active compound desired are applied in 1000 l of water/ha.
(§5) After three weeks, the degree of damage to the plants is scored visually in % damage, in comparison to the untreated control.
(§6) 0%=no effect (like untreated control)

Ipomoea = assay: Post-emergence test; assay type: in vivo; settings: greenhouse, 250 g of ai./ha, after three weeks
Experimental: as §1, §2, §3, §4, §5, §6

Abutilon [2] = assay: Post-emergence test; assay type: in vivo; settings: greenhouse, after three weeks
Experimental: as §1, §2, §3, §4, §5, §6

Veronica [3] = assay: Post-emergence test; assay type: in vivo; settings: greenhouse, 250 g of ai./ha, after three weeks
Experimental: as §1, §2, §3, §4, §5, §6

Datura = assay: Post-emergence test; assay type: in vivo; settings: greenhouse, 250 g of ai./ha, after three weeks
Experimental: as §1, §2, §3, §4, §5, §6

Echinochloa = assay: Post-emergence test; assay type: in vivo; settings: greenhouse, 250 g of ai./ha, after three weeks
Experimental: as §1, §2, §3, §4, §5, §6

Wheat [4] = assay: Post-emergence test; assay type: in vivo; settings: greenhouse, 250 g of ai./ha, after three weeks
Experimental: as §1, §2, §3, §4, §5, §6

weeds [5] = assay: Pre-emergence test; assay type: in vivo
Experimental: as §1, §2, §3
(§7) Seeds of the test plants are sown in normal soil. After about 24 hours, the soil is watered with the preparation of active compound. The amount of water per unit area is advantageously kept constant. The concentration of active compound in the preparation is immaterial, only the application rate of active compound per unit area matters.
(§8) After three weeks, the degree of damage to the plants is scored visually in % damage in comparison to the development of the untreated control.
as §6

Matricaria = assay: Pre-emergence test; assay type: in vivo; settings: greenhouse, 500 g of ai./ha, after three weeks
Experimental: as §1, §2, §3, §7, §8, §6

Abutilon [6] = assay: Pre-emergence test; assay type: in vivo; settings: Abutilon, 504 h, greenhouse, after three weeks, read-out: degree of damage to the plants (% damage), Abutilon; for pest or weed control at 1000 g/ha: 1000 g of ai./ha
Experimental: as §1, §2, §3, §7, §8, §6

Cotton = assay: Pre-emergence test; assay type: in vivo; settings: greenhouse, 500 g of ai./ha, after three weeks
Experimental: as §1, §2, §3, §7, §8, §6

Galium [7] = assay: Pre-emergence test; assay type: in vivo; settings: greenhouse, after three weeks
Experimental: as §1, §2, §3, §7, §8, §6

Alopecurus [8] = assay: Pre-emergence test; assay type: in vivo; settings: greenhouse, after three weeks
Experimental: as §1, §2, §3, §7, §8, §6

Maize = assay: Pre-emergence test; assay type: in vivo; settings: greenhouse, after three weeks
Experimental: as §1, §2, §3, §7, §8, §6

Digitaria = assay: Pre-emergence test; assay type: in vivo; settings: greenhouse, 500 g of ai./ha, after three weeks
Experimental: as §1, §2, §3, §7, §8, §6

Xanthium [9] = assay: Post-emergence test; assay type: in vivo; settings: greenhouse, 1000 g of ai./ha, after three weeks
Experimental: as §1, §2, §3, §4, §5, §6

Setaria [10] = assay: Post-emergence test; assay type: in vivo; settings: Setaria, 504 h, greenhouse, 1000 g of ai./ha, after three weeks, read-out: degree of damage to the plants (% damage), Setaria
Experimental: as §1, §2, §3, §4, §5, §6

Galium [11] = assay: Post-emergence test; assay type: in vivo; settings: greenhouse, 1000 g of ai./ha, after three weeks
Experimental: as §1, §2, §3, §4, §5, §6

Alopecurus [12] = assay: Post-emergence test; assay type: in vivo; settings: greenhouse, 1000 g of ai./ha, after three weeks
Experimental: as §1, §2, §3, §4, §5, §6

Amaranthus [13] = assay: Post-emergence test; assay type: in vivo; settings: Amaranthus, 504 h, greenhouse, 1000 g of ai./ha, after three weeks, read-out: degree of damage to the plants (% damage), Amaranthus
Experimental: as §1, §2, §3, §4, §5, §6

Sinapis [14] = assay: Pre-emergence test; assay type: in vivo; settings: greenhouse, 1000 g of ai./ha, after three weeks
Experimental: as §1, §2, §3, §7, §8, §6

Amaranthus [15] = assay: Pre-emergence test; assay type: in vivo; settings: Amaranthus, 504 h, greenhouse, 1000 g of ai./ha, after three weeks, read-out: degree of damage to the plants (% damage), Amaranthus
Experimental: as §1, §2, §3, §7, §8, §6

Chenopodium = assay: Pre-emergence test; assay type: in vivo; settings: greenhouse, 500 g of ai./ha, after three weeks
Experimental: as §1, §2, §3, §7, §8, §6

Veronica [16] = assay: Pre-emergence test; assay type: in vivo; settings: greenhouse, 500 g of ai./ha, after three weeks
Experimental: as §1, §2, §3, §7, §8, §6

Viola = assay: Pre-emergence test; assay type: in vivo; settings: greenhouse, 500 g of ai./ha, after three weeks
Experimental: as §1, §2, §3, §7, §8, §6

Setaria [17] = assay: Pre-emergence test; assay type: in vivo; settings: greenhouse, 1000 g of ai./ha, after three weeks
Experimental: as §1, §2, §3, §7, §8, §6

Solanum = assay: Pre-emergence test; assay type: in vivo; settings: greenhouse, 500 g of ai./ha, after three weeks
Experimental: as §1, §2, §3, §7, §8, §6

Wheat [18] = assay: Pre-emergence test; assay type: in vivo; settings: greenhouse, 500 g of ai./ha, after three weeks
Experimental: as §1, §2, §3, §7, §8, §6

Cyperus = assay: Post-emergence test; assay type: in vivo; settings: greenhouse, 1000 g of ai./ha, after three weeks
Experimental: as §1, §2, §3, §4, §5, §6

Sinapis [19] = assay: Post-emergence test; assay type: in vivo; settings: greenhouse, 1000 g of ai./ha, after three weeks
Experimental: as §1, §2, §3, §4, §5, §6

Avena fatua = assay: Post-emergence test; assay type: in vivo; settings: greenhouse, 1000 g of ai./ha, after three weeks
Experimental: as §1, §2, §3, §4, §5, §6

Xanthium [20] = assay: Pre-emergence test; assay type: in vivo; settings: greenhouse, 1000 g of ai./ha, after three weeks
Experimental: as §1, §2, §3, §7, §8, §6

CCC(CCc1ccccc1)Nc1nc(N)nc(C(C)(C)F)n1 (racemic) [Example 1, (R/S)-2-amino-4-(1-fluoro-1-methyl-ethyl)-6-(1-ethyl-3-phenyl-propylamino)-1,3,5-triazine]
activity against weeds (weeds [1]): strong activity | degree of damage to the plants (% damage), Ipomoea (Ipomoea): 100% | degree of damage to the plants (% damage), Abutilon (Abutilon [2]; 250 g of ai./ha): 100% | degree of damage to the plants (% damage), Veronica (Veronica [3]): 100% | degree of damage to the plants (% damage), Datura (Datura): 100% | degree of damage to the plants (% damage), Echinochloa (Echinochloa): 80% | degree of damage to the plants (% damage), Wheat (Wheat [4]): 0% | activity against weeds (weeds [5]): strong activity | degree of damage to the plants (% damage), Matricaria (Matricaria): 100% | pest or weed control at 500 g/ha (Abutilon [6]; 500 g of ai./ha): 100% | degree of damage to the plants (% damage), Cotton (Cotton): 0% | degree of damage to the plants (% damage), Galium (Galium [7]; 500 g of ai./ha): 100% | degree of damage to the plants (% damage), Alopecurus (Alopecurus [8]; 500 g of ai./ha): 100% | degree of damage to the plants (% damage), Maize (Maize; 500 g of ai./ha): 0% | degree of damage to the plants (% damage), Digitaria (Digitaria): 100%

CCC(COc1ccccc1)Nc1nc(N)nc(C(F)(F)F)n1 (stereo not shown) [Example 2]
activity against weeds (weeds [1]): strong activity | degree of damage to the plants (% damage), Abutilon (Abutilon [2]; 1000 g of ai./ha): 100% | degree of damage to the plants (% damage), Xanthium (Xanthium [9]): 100% | pest or weed control at 1000 g/ha (Setaria [10]): 100% | degree of damage to the plants (% damage), Galium (Galium [11]): 100% | degree of damage to the plants (% damage), Alopecurus (Alopecurus [12]): 70% | pest or weed control at 1000 g/ha (Amaranthus [13]): 100% | degree of damage to the plants (% damage), Sinapis (Sinapis [14]): 100% | activity against weeds (weeds [5]): strong activity | pest or weed control at 1000 g/ha (Abutilon [6]): 80% | degree of damage to the plants (% damage), Maize (Maize; 1000 g of ai./ha): 20% | pest or weed control at 1000 g/ha (Amaranthus [15]): 100% | melting point: 100 °C

CCC(CCc1ccccn1)Nc1nc(N)nc(C(C)(C)F)n1 (stereo not shown) [Example 22]
activity against weeds (weeds [1]): strong activity | degree of damage to the plants (% damage), Abutilon (Abutilon [2]; 1000 g of ai./ha): 70% | degree of damage to the plants (% damage), Xanthium (Xanthium [9]): 70% | pest or weed control at 1000 g/ha (Setaria [10]): 80% | degree of damage to the plants (% damage), Galium (Galium [11]): 80% | pest or weed control at 1000 g/ha (Amaranthus [13]): 95% | activity against weeds (weeds [5]): strong activity | degree of damage to the plants (% damage), Chenopodium (Chenopodium): 100% | pest or weed control at 1000 g/ha (Abutilon [6]): 100% | degree of damage to the plants (% damage), Cotton (Cotton): 0% | degree of damage to the plants (% damage), Veronica (Veronica [16]): 100% | degree of damage to the plants (% damage), Viola (Viola): 100% | degree of damage to the plants (% damage), Setaria (Setaria [17]): 70% | degree of damage to the plants (% damage), Galium (Galium [7]; 1000 g of ai./ha): 100% | degree of damage to the plants (% damage), Alopecurus (Alopecurus [8]; 1000 g of ai./ha): 90% | degree of damage to the plants (% damage), Solanum (Solanum): 100% | degree of damage to the plants (% damage), Wheat (Wheat [18]): 0% | pest or weed control at 1000 g/ha (Amaranthus [15]): 95%

CCC(CCc1cccs1)Nc1nc(N)nc(C(C)F)n1 (stereo not shown) [Example 23]
degree of damage to the plants (% damage), Cyperus (Cyperus): 100% | degree of damage to the plants (% damage), Sinapis (Sinapis [19]): 100% | activity against weeds (weeds [1]): strong activity | degree of damage to the plants (% damage), Abutilon (Abutilon [2]; 1000 g of ai./ha): 100% | degree of damage to the plants (% damage), Xanthium (Xanthium [9]): 100% | pest or weed control at 1000 g/ha (Setaria [10]): 100% | degree of damage to the plants (% damage), Alopecurus (Alopecurus [12]): 90% | pest or weed control at 1000 g/ha (Amaranthus [13]): 100% | degree of damage to the plants (% damage), Avena fatua (Avena fatua): 100%

CCC(CCc1ccsc1)Nc1nc(N)nc(C(C)(C)F)n1 (stereo not shown) [Example 33]
degree of damage to the plants (% damage), Cyperus (Cyperus): 90% | degree of damage to the plants (% damage), Sinapis (Sinapis [19]): 100% | activity against weeds (weeds [1]): strong activity | degree of damage to the plants (% damage), Abutilon (Abutilon [2]; 1000 g of ai./ha): 100% | pest or weed control at 1000 g/ha (Setaria [10]): 100% | degree of damage to the plants (% damage), Alopecurus (Alopecurus [12]): 80% | pest or weed control at 1000 g/ha (Amaranthus [13]): 100% | degree of damage to the plants (% damage), Avena fatua (Avena fatua): 100% | degree of damage to the plants (% damage), Sinapis (Sinapis [14]): 100% | activity against weeds (weeds [5]): strong activity | pest or weed control at 1000 g/ha (Abutilon [6]): 90% | degree of damage to the plants (% damage), Xanthium (Xanthium [20]): 90% | degree of damage to the plants (% damage), Setaria (Setaria [17]): 100% | degree of damage to the plants (% damage), Alopecurus (Alopecurus [8]; 1000 g of ai./ha): 100% | pest or weed control at 1000 g/ha (Amaranthus [15]): 100%
